Laboratory results from US20220080053A1, “USE OF ANTI-CEACAM5 IMMUNOCONJUGATES FOR TREATING LUNG CANCER” (SANOFI, priority 2019, published 2022).

Tests used:
[1] = test system: other CEACAM family members; details: cited from earlier work
[2] = test system: Macaca fascicularis CEACAM5; details: cited from earlier work
[3] = test system: Macaca fascicularis CEACAM5; test: Affinity for Macaca fascicularis CEACAM5; format: binding
Text: (§1) In an attempt to produce new antibodies against CEACAM5 surface protein with optimal characteristics for therapeutic purposes, mice were immunized with recombinant proteins and with tumour cells. They have screened hundreds of hybridoma using ELISA on several recombinant proteins of the CEACAM family, and flow cytometry with relevant cell lines, in order to select only immunoglobulins (IgGs) with the advantageous profile. Unexpectedly, they were able to select hybridoma clones and produce corresponding mature IgGs that comprise all of the desired features. […] In a cellular context, these antibodies display high affinity for tumor cells (in the nano-molar range). […] It can be experimentally assessed by a variety of known methods, such as measuring association and dissociation rates with surface plasmon resonance or measuring the EC50 (or apparent KD) in an immunochemical assay (ELISA, FACS). In these assays, the EC50 is the concentration of the antibody which induces a response halfway between the baseline and maximum after some specified exposure time on a defined concentration of antigen by ELISA (enzyme-linked immuno-sorbent assay) or cell expressing the antigen by FACS (Fluorescence Activated Cell Sorting). Affinity for human CEACAM5 or for Macaca fascicularis CEACAM5 may be determined as the EC50 value in an ELISA using soluble recombinant CEACAM5 as capture antigen.

human CEACAM5 = target: T1, human CEACAM5 (Homo sapiens, UniProt P06731); test: Affinity for human CEACAM5; format: binding
T1 construct: soluble recombinant CEACAM5 as capture antigen
T1 sequence (P06731 35-685 limits assumed): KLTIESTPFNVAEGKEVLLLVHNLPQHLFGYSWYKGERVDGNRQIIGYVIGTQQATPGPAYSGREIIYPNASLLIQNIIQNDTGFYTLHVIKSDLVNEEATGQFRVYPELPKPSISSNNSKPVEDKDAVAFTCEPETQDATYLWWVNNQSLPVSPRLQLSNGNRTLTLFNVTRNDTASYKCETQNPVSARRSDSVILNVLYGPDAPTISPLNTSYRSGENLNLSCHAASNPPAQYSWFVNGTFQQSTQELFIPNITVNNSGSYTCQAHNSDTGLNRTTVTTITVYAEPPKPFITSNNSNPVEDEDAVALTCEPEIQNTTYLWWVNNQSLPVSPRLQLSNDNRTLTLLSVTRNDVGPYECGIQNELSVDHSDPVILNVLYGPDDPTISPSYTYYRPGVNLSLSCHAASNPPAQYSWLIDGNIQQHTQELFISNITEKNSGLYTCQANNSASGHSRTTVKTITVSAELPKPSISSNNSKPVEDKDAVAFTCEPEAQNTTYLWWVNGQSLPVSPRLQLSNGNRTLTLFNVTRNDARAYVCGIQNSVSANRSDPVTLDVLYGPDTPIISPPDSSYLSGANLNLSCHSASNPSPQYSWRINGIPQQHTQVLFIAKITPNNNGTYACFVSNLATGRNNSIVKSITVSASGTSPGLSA
Text: as §1

Macaca fascicularis CEACAM5, sequence (as listed by the source): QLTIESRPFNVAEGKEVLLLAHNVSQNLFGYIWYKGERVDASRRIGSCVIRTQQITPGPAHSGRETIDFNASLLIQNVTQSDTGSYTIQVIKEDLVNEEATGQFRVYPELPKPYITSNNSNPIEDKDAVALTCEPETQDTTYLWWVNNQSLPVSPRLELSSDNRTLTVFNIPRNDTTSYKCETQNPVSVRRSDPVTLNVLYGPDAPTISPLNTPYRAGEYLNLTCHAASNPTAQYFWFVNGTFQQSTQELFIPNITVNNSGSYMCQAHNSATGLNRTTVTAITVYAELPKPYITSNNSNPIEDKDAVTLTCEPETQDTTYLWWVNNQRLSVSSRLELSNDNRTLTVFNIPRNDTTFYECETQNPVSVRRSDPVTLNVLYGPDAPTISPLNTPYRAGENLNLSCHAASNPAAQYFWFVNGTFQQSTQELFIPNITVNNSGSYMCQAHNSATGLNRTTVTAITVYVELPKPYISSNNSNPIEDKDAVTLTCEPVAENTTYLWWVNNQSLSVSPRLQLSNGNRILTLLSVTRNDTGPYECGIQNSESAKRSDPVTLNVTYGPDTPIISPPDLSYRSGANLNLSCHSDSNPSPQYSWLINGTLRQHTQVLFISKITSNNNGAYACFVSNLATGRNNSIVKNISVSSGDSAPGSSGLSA

## labetuzumab: Immunomedics anti-human CEACAM5 antibody used in clinical trials
[1]
  binding to related antigens / other CEACAM family members: not to bind
[2]
  cross-reaction with CEACAM5 from Macaca fascicularis: not cross-reacting

B1: Mab2K52R: variant of antibody MAb2 generated by introducing a K52R substitution in the CDR2-L (antibody, V domains shown)
VH: EVQLQESGGVLVKPGGSLKLSCAASGFVFSSYDMSWVRQTPEKRLEWVAYISSGGGITYFPDTVQGRFTVSRDNAKNTLYLQMNSLKSEDTAIYYCAAHYFGSSGPFAYWGQGTLVTVSA
VL: DIQMTQSPASLSASVGETVTITCRASENIFSYLAWYQQKQGKSPQLLVYNTRTLAEGVPSRFSGSGSGTQFSLKINSLQPEDFGSYYCQHHYGTPFTFGSGTKLEIK
[3]
  affinity for Macaca fascicularis CEACAM5 compared with MAb2: essentially the same affinity
Human CEACAM5
  affinity for human CEACAM5 compared with MAb2: essentially the same affinity
